The text below walks through data of publication PMC3919579, “Timing of GTP binding and hydrolysis by translation termination factor RF3” (Nucleic Acids Research, 2013).

This assay deals with T1, RF3 (Escherichia coli, UniProt P0A7I4).
T1 construct: gene prfC; free RF3, N-terminal His-tag, pET30a, BL21(DE3), Ni-NTA and Resource Q
T1 sequence (P0A7I4 2-529): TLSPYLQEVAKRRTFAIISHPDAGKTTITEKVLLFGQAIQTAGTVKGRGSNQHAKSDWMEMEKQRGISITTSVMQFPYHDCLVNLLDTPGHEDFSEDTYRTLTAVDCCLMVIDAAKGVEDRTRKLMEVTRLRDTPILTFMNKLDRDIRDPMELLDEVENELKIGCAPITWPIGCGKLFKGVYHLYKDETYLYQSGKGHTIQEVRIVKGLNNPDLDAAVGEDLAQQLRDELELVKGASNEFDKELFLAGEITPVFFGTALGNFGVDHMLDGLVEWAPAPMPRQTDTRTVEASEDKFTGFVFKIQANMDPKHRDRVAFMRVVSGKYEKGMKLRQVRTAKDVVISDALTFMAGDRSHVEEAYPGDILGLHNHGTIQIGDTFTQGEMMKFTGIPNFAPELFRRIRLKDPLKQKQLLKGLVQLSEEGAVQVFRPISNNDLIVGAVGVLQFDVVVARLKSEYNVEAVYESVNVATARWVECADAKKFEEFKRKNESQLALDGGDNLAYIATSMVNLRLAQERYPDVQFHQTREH
Description: competition titration against mantGDP, FRET. The assay is classed as binding. Particulars: pH 7.5, 37 °C, 7 mM MgCl2; competition with purified RF3-mantGDP.
Regarding `Nc1nc2c(ncn2[C@@H]2O[C@H](COP(=O)(O)OP(=O)(O)O)[C@@H](O)[C@H]2O)c(=O)[nH]1` [GDP], the “ratio of added nucleotide to mantGDP at half-saturation” value (shortened to “ratio of added nucleotide to mantGDP”) worked out at 1 fold.

In the case of `Nc1nc2c(ncn2[C@@H]2O[C@H](COP(=O)(O)OP(=O)(O)CP(=O)(O)O)[C@@H](O)[C@H]2O)c(=O)[nH]1` [GDPCP], the “ratio of added nucleotide to mantGDP” value is 60 fold.

In the case of `Nc1nc2c(ncn2[C@@H]2O[C@H](COP(=O)(O)OP(=O)(O)OP(=O)(O)O)[C@@H](O)[C@H]2O)c(=O)[nH]1` [GTP], the “ratio of added nucleotide to mantGDP” value turned out to be 3 fold.

As to `Nc1nc2c(ncn2[C@@H]2O[C@H](COP(=O)(O)OP(=O)(O)NP(=O)(O)O)[C@@H](O)[C@H]2O)c(=O)[nH]1` [GDPNP], the “ratio of added nucleotide to mantGDP” value came out at 40 fold.
